Experimental data taken from a melting point compilation (Tetko et al.; mined from patent text by program, amines drawn as free bases though some values may be those of a salt).

Row | melting point [°C] | SMILES
1 | 159 to 170 | Cc1cccc(NC(=O)NC2N=C(C3CCCCC3)c3cccc(C)c3N(CC(=O)C3CCCCC3)C2=O)c1 (stereo not drawn)
2 | 253 to 254 | O=c1nc(-c2cccc(-n3cccn3)n2)sc2ccccc12
3 | 313 | COc1ccc(-c2nnc3c4ccccc4c(Nc4ccc(NC(=O)c5ccc(N6CCOCC6)cc5)cc4)nn23)cc1
4 | 109 to 110 | CCc1nc(C(=O)OC)c(Cl)c(N)c1F
5 | 146 to 148 | CC(C(O)c1ccc(OCc2ccccc2)c(OCc2ccccc2)c1)N1CCC(n2c(=O)[nH]c3ccccc32)CC1 (stereo not drawn)
6 | 166 to 169 | COC(=O)C1=C(C)NC(C)=C(C(=O)OCCN2CCN(C(c3ccccc3)c3ccccc3)CC2)C1c1cccc([N+](=O)[O-])c1 (stereo not drawn)
7 | 163 | NC[C@@H]1CNc2cccc(-c3ccc(Cl)cc3Cl)c2O1
8 | 198 | O=c1[nH]nc2n1-c1ccccc1OC2
9 | 103 to 104 | CN(C)C(=O)[C@H]1C[C@H]1C(=O)N(C)C
10 | 116 to 117 | c1ccc2c(c1)Cn1ncnc1-2
11 | 163 to 165 | O=C(NC1=NN(c2ccccc2)CC1)C(F)(F)F
12 | 169 to 170 | Cc1[nH]c(-c2ccncc2)c(C)c1C(=O)C(F)(F)F
13 | 149 to 150 | COc1cccc(Oc2c(NS(=O)(=O)c3ccc(C(C)(C)C)cc3)ncnc2OCCOc2ccncn2)c1
14 | 77 to 79 | COC(=O)CC(=O)c1cc(F)c(Cl)cc1Cl
15 | 113 to 116 | Brc1ccc2noc(-c3ccccc3)c2c1
16 | 84 to 86 | CCC1(CC)CC(O)CC(C)(C)N1OC(C)c1ccccc1 (stereo not drawn)
17 | 195 | CC1(C)c2cc(I)ccc2-c2ccc(I)cc21
18 | 200 to 201 | Nc1nc2cc(OCc3ccccc3)ccc2c2c1ncn2CCOc1ccccc1
19 | 247 | Cc1cc(-c2cc(C(F)(F)F)n3ncc(-c4ccncc4)c3n2)ccc1Cl

Row | melting point [°C] | SMILES
20 | 46 to 49 | Cc1nnc(NCCN(C)C)nc1C
21 | 115 to 117 | O=C1CC(c2ccc(Br)cc2)Oc2ccc(Br)cc21 (stereo not drawn)
22 | 160 to 162 | COc1cccc(NC(=O)N(C)Cc2cccc3c2C(=O)N(C2CCC(=O)NC2=O)C3=O)c1 (stereo not drawn)
23 | 222 | Cc1cc2c(-c3ccccc3)c(CC(=O)NCc3ccccc3)n(C)c(=O)c2cc1C
24 | 252 | NNC(=O)CCCCC(=O)N(NC(=O)c1ccccc1O)C(=O)c1ccccc1O
25 | 205 to 206 | CN(C)S(=O)(=O)c1cc(C(=O)O)cc(NCc2ccccc2)c1Oc1ccccc1
26 | 117 to 119 | COc1ccc(COC(=O)CC(=O)Oc2ccc(-c3cn4c(n3)sc3ccccc34)cc2)cc1
27 | 225 to 226 | COC(=O)C1=C(C)NC(C)=C(P2(=O)OC(C)CC(C)O2)C1c1cccc([N+](=O)[O-])c1 (stereo not drawn)
28 | 48 to 49 | CC(=O)OCCCC(=O)CC(=O)c1ccccc1
29 | 155 to 156 | COc1c(N)nc(Cl)nc1Cl
30 | 124 to 126 | CCCOc1cc2c(cc1OCCC)CCC(C(=O)N1CCN(C(=O)c3cc(OC)c(OC)c(OC)c3)CC1)=C2
31 | 95 to 96 | O=C(O)COc1cccc(CN2C(=O)C3(COc4cc5c(cc43)CCO5)c3ccccc32)c1 (stereo not drawn)
32 | 116 | CC(C)(C)OC(=O)NC[C@@H]1CNC(=O)O1
33 | 190 to 192 | COc1cc(C(=O)c2ccnc3ccccc23)ccc1O
34 | 117 to 119 | O=C(O)c1ccc(OCCc2c(CCNS(=O)(=O)Cc3ccc(Cl)c(Cl)c3)n(C(c3ccccc3)c3ccccc3)c3ccc(Cl)cc23)cc1F
35 | 195 to 197 | CONCc1nc2c(N)nc3cc(-c4cccnc4)cnc3c2n1CC(C)(C)O
36 | 161 to 162 | COc1cccc(C(CC(N)=O)CC(N)=O)c1
37 | 274 to 275 | COc1ccc(-c2c3ccccc3cc3sc4ccccc4c23)cc1I
38 | 45 to 46 | COc1cc(C)c(CCCCCCCCCCCCCCCC(=O)O)c(O)c1OC

The remaining lines, values behind:

Row | SMILES | melting point [°C]
39 | CCOC(=O)c1cn2c(n1)CN(C(C)=O)CC2 | 97
40 | Cc1cc(Nc2ccnc(Nc3ccc(S(=O)(=O)N(Cc4ccco4)C4CCN(C)CC4)cc3)n2)ccc1F | 184
41 | NC(=O)C=Cc1cccc(NC(=O)c2cc(-c3cccc(F)c3)ccc2F)c1 | 216 to 218
42 | O=C(NC1CCNC1=O)c1cccc(-c2cccc3oc(Cc4cccc(C(F)(F)F)c4)cc23)c1 (stereo not drawn) | 110 to 120
43 | COC=C1C(=O)NC(=O)c2ccc(OC)cc21 | 245 to 247
44 | CCOC(=O)Cc1cc(O)ccc1F | 85 to 87
45 | Cc1ccc(C(=O)NC(NC(=S)Nc2ccc(F)cc2)C(F)(F)F)cc1 (stereo not drawn) | 208 to 210
46 | C#CCC(C(=CCl)c1cccnc1)c1ccc(Cl)cc1Cl (stereo not drawn) | 87 to 88
47 | CN(Cc1cc(C(F)(F)F)cc(C(F)(F)F)c1)C(=O)c1c(-c2ccccc2)c2ccccc2c(=S)n1C | 145 to 147
48 | C=CCOC(=O)c1ccccc1OS(=O)(=O)NC(=O)Nc1nc(OC)cc(OC)n1 | 110 to 112
49 | O=C(c1ccc(O)nc1)N1CCN=C1Nc1c(Cl)cccc1Cl | 256 to 258
50 | CCCNC(=O)COC1c2ccccc2C(=O)N1c1ccc2ccc(Cl)nc2n1 (stereo not drawn) | 167
51 | CN1CCC(Oc2ccccc2[N+](=O)[O-])(c2ccccc2)CC1 | 80 to 82
52 | CC(O)C1CCC2C3C=CC4=CC(=O)C5OC5C4(C)C3CCC12C (stereo not drawn) | 206 to 207
53 | Fc1ccc(-c2cn([C@H]3CN4CCC3CC4)nn2)cc1 | 139
54 | OCCNc1cc(Nc2ccc(Oc3ccccc3)cc2)ncn1 | 154 to 156
55 | CCCCc1nc(Cl)c(CN2CCN(c3ccccc3OC)CC2)n1Cc1ccc(-c2ccccc2-c2nnn[nH]2)cc1 | 154 to 158
56 | CCOc1cc2c(cc1OCC)[C@@H]1CCCC[C@@H]1N=C2c1ccc(Cl)nc1 (racemic) | 123 to 126
57 | C1CCC(Nc2nc(NC3CCCCC3)nc(NC3CCCCC3)n2)CC1 | 225
58 | S=C(S)CCc1ccccc1 | 57 to 59

Row | SMILES | melting point [°C]
59 | Cc1ccsc1C(=O)c1cccn1N1C(=O)c2ccccc2C1=O | 221 to 223
60 | CC(C)(C)OC(=O)Nc1ccc(Nc2nc(-c3ccc4cc(OCc5ccccc5)ccc4c3)cc3ccnn23)cc1 | 189
61 | COc1cc2c(cc1OC)[C@H]1CCCC[C@H]1N=C2c1ccc(C(C)=NO)cc1 | 189 to 192
62 | CC(C)c1ccc(N(Cc2ccc(N(C)C)cc2)C(=O)C2CCOc3cc(O)ccc32)cc1 (stereo not drawn) | 173
63 | Cc1cc(-n2cnnn2)cc(I)c1N | 172 to 175
64 | CN1CCN(c2ncccc2C#N)C(c2ccccc2)C1 (stereo not drawn) | 65.7 to 66.8
65 | CCCN=C1SC(=CC(=O)O)C(=O)N1CCC | 101 to 103
66 | O=C(O)c1cccc(CN2C(=O)C3(COc4cc5c(cc43)CCO5)c3ccccc32)c1 (stereo not drawn) | > 250
67 | O=C(C[N+](=O)[O-])c1ccc(-c2ccc(-c3ccc4ccccc4n3)cc2)cc1 | 160 to 162
68 | CC(C)n1nc(-c2ncc(N)nc2-c2ccccc2)ccc1=O | 204 to 206
69 | CC1CCN(C(C#N)C2(c3ccc(Cl)c(Cl)c3)CCC2)CC1 (stereo not drawn) | 76 to 78
70 | CCOC(=O)C=C1CN(C)C(=O)c2ccccc2N1 | 154 to 155
71 | O=C(O)COc1cccc2c1CCc1sc(S(=O)(=O)CC=Cc3ccccc3)nc1-2 | 210 to 214
72 | Fc1ccc2c(CN3CC=C(CCc4ccccc4)CC3)c[nH]c2c1 | 150 to 152
73 | Cn1cc(C2=C(c3cn(C)c4cc(CO)ccc34)C(=O)NC2=O)c2ccccc21 | 245 to 246
74 | Cc1cc(OCC(F)(F)F)c(N)c(OCC(F)(F)F)n1 | 53.5 to 53.8
75 | CCCCc1ccc2nc(C(=O)OCC)cc(Cl)c2c1 | 54.5 to 56
76 | COc1cc(C(=O)CN2CCN(c3ccncc3)CC2)ccc1OCC(=O)O | 218 to 224
77 | CCOC(=O)CNC(=S)NC(Cc1ccc(OC)cc1)=Nc1ccccc1 | 120 to 121
78 | Nc1nc(N)c(CCCN(C(=O)C(F)(F)F)c2ccc(C(=O)O)cc2)c(=O)[nH]1 | 229 to 230

Row | SMILES | melting point [°C]
79 | O=C(c1ccc(-c2ccccc2)cc1)c1cccnc1 | 112 to 115
80 | Cc1cc2c(cc1S(=O)(=O)c1ccc(Cl)cc1)OC(C(=O)O)O2 (stereo not drawn) | 169 to 171
81 | CC1CCCC(C)N1Cc1ccc(NC(=O)C#Cc2ccc(-c3ccc(Cl)cc3)cc2)cc1 (stereo not drawn) | 158 to 163
82 | COc1ccc(C(=O)Nc2ccccc2)cc1NS(=O)(=O)c1cccc([N+](=O)[O-])c1 | 208 to 210
83 | COc1cc(C(=O)c2nc(Br)c3ccccn23)ccc1[N+](=O)[O-] | 189
84 | O=[N+]([O-])c1cc(C(F)(F)F)ccc1NCCCN1CCN(C(c2ccccc2)c2ccccc2)CC1 | 114
85 | COC(=O)c1ccc(C(=NO)c2ccc(C(=O)OC)cc2)cc1 | 177 to 178
86 | OC(Cn1cncn1)(c1ccc(Cl)cc1)C1(C2CC2)CC1 (stereo not drawn) | 110 to 112
87 | CCCCOc1nc(N)c2[nH]c(=O)n(CCCNS(=O)(=O)c3cccc(CC(=O)OC)c3)c2n1 | 218 to 219
88 | COc1cc(O[Si](C)(C)C(C)(C)C)c(C)c(C(=O)O)c1Br | 120 to 125
89 | COC1CCc2c(cc(-c3ccccc3)n2-c2ccc(O)cc2)C1 (stereo not drawn) | 174 to 175
90 | CN1CCN(c2c(F)c(F)c([N+](=O)[O-])c(F)c2F)CC1 | 77 to 78
91 | CC1C(=O)N(c2ccc(OCc3ccccc3)cc2)C(=S)N1c1ccccc1 (stereo not drawn) | 155
92 | FC(F)(F)c1cc(C(F)(F)F)c(-c2ccc(Cl)cc2)[nH]1 | 41 to 43
93 | CC1=C(C(=O)NN)C(c2ccccc2Cl)c2c[nH]nc2N1 (stereo not drawn) | 220
94 | CN(C)CCN(C)C(=O)Cc1ccc(NC(=O)OCc2ccccc2)cc1 | 109 to 110
95 | C1=C(c2c[nH]c3ccccc23)CCN(CC2COc3ccc4c(c3O2)CCCO4)C1 (stereo not drawn) | 186 to 187
96 | N#CCNS(=O)(=O)c1ccc([N+](=O)[O-])cc1 | 115 to 120
97 | Nc1cc(-n2cc(C(=O)O)c(=O)c3c(O)c(F)c(F)cc32)c(F)cc1F | > 270
98 | Cc1ncccc1C(C#N)N1CCN(C(=O)CC(NC(=O)c2ccc(OCc3ccc4ccccc4n3)cc2)c2ccccc2)CC1 (stereo not drawn) | 104 to 110
